Assays:
human TGR5 [1] = molecular target: T1, human TGR5 (Homo sapiens, UniProt Q8TDU6); assay: cAMP production increasing activity in human TGR5 expressing CHO cells; format: cell-based; details: read-out: EC50 value (concentration necessary to make the cAMP production amount 50%)
T1 construct: expressed in transfected cells; host or cells: CHO cells
T1 sequence (Q8TDU6 1-330): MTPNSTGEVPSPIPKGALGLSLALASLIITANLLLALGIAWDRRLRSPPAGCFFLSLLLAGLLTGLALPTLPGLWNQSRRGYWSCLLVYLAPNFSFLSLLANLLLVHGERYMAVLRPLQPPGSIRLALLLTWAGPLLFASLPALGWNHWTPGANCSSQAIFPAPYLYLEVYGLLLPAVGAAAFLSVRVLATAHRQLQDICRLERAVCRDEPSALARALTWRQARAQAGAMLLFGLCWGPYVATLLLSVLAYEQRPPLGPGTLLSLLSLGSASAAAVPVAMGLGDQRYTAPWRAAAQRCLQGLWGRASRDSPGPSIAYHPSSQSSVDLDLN

[2] = test system: rat intestine primary culture cells; assay: GLP-1 secretion from rat intestine primary culture cells; format: cell-based; details: test compound 20 μM, 150 min
Protocol: Terminal ileum and colon mucous membrane were removed from rat (Wistar, male, Charles River Japan, Inc.) and subjected to an enzyme treatment to give a cell dispersion according to the following method.
The enzyme solution used was obtained by dissolving 5 mg/ml Collagenase (Sigma), 5 mg/ml Hyaluronidase (Sigma) and 0.5 mg/ml DNaseI (Sigma) in a medium. The medium used was Dulbecco's Modified Eagle Medium (DMEM, Invitrogen) supplemented with 4.5 g/l Glucose, 5% FBS (Invitrogen), 100 units/ml Penicillin (Invitrogen), 100 μg/ml Streptomycin (Invitrogen), 50 μg/ml Gentamicin (Invitrogen) and 20 mM Hepes (pH 7.3). After digestion by the enzyme solution at 37° C., the tissue sections were prepared into dispersed cells by passing through a pipette 7 times and the cells were collected. The collected cells were washed with a buffer (incubation buffer) obtained by adding 5.5 mM Glucose and 0.1% BSA to a modified Krebs-Ringer bicarbonate buffer (KRBH, 116 mM NaCl, 4.7 mM KCl, 1.2 mM KH2PO4, 1.2 mM MgSO4, 2.5 mM CaCl2, 25 mM NaHCO3, 24 mM HEPES, pH 7.3), and preincubated at 37° C. under 5% CO2 for 30 min. 0.1 μM Phorbol ester (Wako), 1% DPPIV inhibitor (Linco) and a test compound were added to the above-mentioned incubation buffer, and the obtained buffer was added to the cells after the aforementioned preincubation and incubated for 150 min. The culture supernatant was collected and cryopreserved. The concentration of GLP-1 released in the culture supernatant was measured using an ELISA kit (Linco).

rat TGR5 = molecular target: T2, rat TGR5 (Rattus norvegicus, UniProt Q80T02); assay: cAMP production increasing activity in rat type TGR5 expressing CHO cells; format: cell-based; details: 0.5 h, read-out: cAMP producing activity (control %)
T2 construct: expressed in transfected cells; host or cells: CHO cells
T2 sequence (Q80T02 1-329): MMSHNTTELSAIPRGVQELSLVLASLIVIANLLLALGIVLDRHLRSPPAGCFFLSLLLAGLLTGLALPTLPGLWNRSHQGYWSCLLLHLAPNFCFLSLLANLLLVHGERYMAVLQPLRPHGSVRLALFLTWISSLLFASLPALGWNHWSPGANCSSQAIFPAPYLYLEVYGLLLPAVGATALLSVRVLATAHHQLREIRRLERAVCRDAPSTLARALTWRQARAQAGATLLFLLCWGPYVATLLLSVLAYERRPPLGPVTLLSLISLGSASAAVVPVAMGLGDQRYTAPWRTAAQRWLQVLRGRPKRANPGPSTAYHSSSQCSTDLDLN
Protocol: (§1) After culture, the cells were detached with 0.5 mM EDTA/PBS, washed with PBS, and suspended in Buffer 1 (HBSS+0.1% BSA, 25 mM HEPES pH 7.3, 0.5 mM IBMX) at a density of 1×10^7 cells/ml. The obtained cell suspension (460 μl), anti-cAMP acceptor beads (23 μl) of AlphaScreen cAMP assay kit (Perkin Elmer) and Buffer 1 (667 μl) were mixed and dispensed to a white 96 well plate (Costar) by 10 μl. Then, a test compound diluted with Buffer 1 was added to each well by 10 μl. At this time, one row of the plate was free of the cell suspension but added with anti-cAMP acceptor beads (9 μl) and Buffer 1 (441 μl) alone, and serial dilutions of cAMP were added instead of the test compound and used as the standard. A mixture of the cell suspension and the test compound contained in the plate was allowed to react at room temperature for 30 min. […] The plate was shaken at room temperature for 2.5 hrs and fluorescence intensity was measured by Fusion α (Parkin Elmer), and the cAMP concentration of each well was calculated using the cAMP standard on each plate.

guinea pig TGR5 = assay: cAMP production increasing activity in guinea pig TGR5 expressing CHO cells; format: cell-based; details: test compound 2 μM; 10 μM lithocholic acid = 100%; average of 3 groups
Protocol: as §1, with “The guinea pig type TGR5 expressing CHO cells were seeded in one 150 cm^2 flask at 1×10^7 cells, and cultured overnight at 37° C., 5% CO2. After” for “After”

human TGR5 [3] = molecular target: T1, human TGR5; assay: cAMP production increasing activity in human TGR5 expressing CHO cells; format: cell-based; details: test compound 1 μM, 30 min; 1 μM lithocholic acid = 100%, no addition = 0%; average of 3 groups
Protocol: As the assay buffer, Hank's balanced salt solution (HBSS, Invitrogen) supplemented with 0.1% bovine serum albumin (BSA, Sigma) and 0.5 mM 3-isobutyl-1-methylxanthine (IBMX, Sigma) was used. A test compound sample (1 μM) diluted with the assay buffer was added to the cells. The cells were incubated at 37° C. for 30 min. and the supernatant was suctioned. The intracellular cAMP amount increased by the stimulation of the test compound was quantitatively determined using a HitHunter™ EFC Cyclic AMP Chemiluminescence Assay Kit (ABI) kit.

[4] = test system: mock CHO cells free of human TGR5 expression; assay: cAMP production increasing activity in mock CHO cells free of human TGR5 expression; format: cell-based; details: test compounds 2 μM, average of 3 groups
Protocol: (§2) As the assay buffer, Hank's balanced salt solution (HBSS, Invitrogen) supplemented with 0.1% bovine serum albumin (BSA, Sigma) and 0.2 mM 3-isobutyl-1-methylxanthine (IBMX, Sigma) was used. The cells were washed twice with the assay buffer and preincubated at 37° C. for 30 min. The cells were washed twice, and test compound samples (10 μM) diluted with the assay buffer to various concentrations were added. The cells were incubated at 37° C. for 20 min. The culture supernatant was discarded, and the cAMP production amount was measured using a cAMP Screen System (ABI).

rabbit TGR5 = molecular target: T3, rabbit TGR5 (Oryctolagus cuniculus, UniProt Q862A8); assay: cAMP production increasing activity in rabbit TGR5 expressing CHO cells; format: cell-based; details: Experimental Example 6; 2 μM; 10 μM lithocholic acid = 100%; average of 3 groups
T3 construct: expressed in transfected cells; host or cells: CHO cells
T3 sequence (Q862A8 1-330): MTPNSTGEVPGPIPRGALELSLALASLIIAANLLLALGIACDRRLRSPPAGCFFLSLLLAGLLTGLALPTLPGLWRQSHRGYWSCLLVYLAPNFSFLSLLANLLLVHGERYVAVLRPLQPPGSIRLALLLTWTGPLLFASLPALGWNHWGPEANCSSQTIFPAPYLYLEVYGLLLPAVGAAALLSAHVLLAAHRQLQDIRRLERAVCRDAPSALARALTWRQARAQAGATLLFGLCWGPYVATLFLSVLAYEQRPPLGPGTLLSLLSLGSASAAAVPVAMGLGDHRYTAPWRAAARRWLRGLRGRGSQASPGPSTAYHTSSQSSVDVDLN
Protocol: as §2, with “twice” for “twice,”, “(2” for “(10”, “buffer” for “buffer to various concentrations”

NCI-H716 cells = assay: intracellular cAMP production increasing action in NCI-H716 cells; format: cell-based, human; details: 10 μM, 2 hrs; production amount in TLCA (50 μM) was 100%; Base 11
Protocol: NCI-H716 (ATCC) was suspended in a medium (Dulbecco's Modified Eagle Medium (DMEM, Invitrogen) supplemented with 10% fetal bovine serum (Invitrogen), 100 U/ml penicillin and 100 μg/ml streptomycin), seeded in a 96 well plate, cultured for 2 days and used for cAMP production assay. As a cAMP assay buffer, modified Krebs-Ringer bicarbonate buffer (KRBH, 116 mM NaCl, 4.7 mM KCl, 1.2 mM KH2PO4, 1.2 MM MgSO4, 2.5 mM CaCl2, 25 mM NaHCO3, 24 mM HEPES pH 7.3), supplemented with glucose 5.5 mM, bovine serum albumin (BSA) 0.1%, and 3-isobutyl-1-methylxanthine (IBMX, Sigma) 1 mM, was used. The cells were washed once with cAMP assay buffer. Bile acids (50 μM) diluted with cAMP assay buffer or the compounds of the present invention (10 μM) were added thereto and the cells were incubated for 2 hrs. The culture supernatant was discarded, and the cAMP production amount was measured by cAMP Screen System (ABI). In the Table, Base means non-addition of a test compound.

[5] = Experimental Example 5, Base 0.19

CC(=O)NCc1cccc(C2OC(CC(=O)NCc3ccccc3F)C(=O)N(CC(C)(C)C)c3ccc(Cl)cc32)c1 (single isomer, unassigned; (+)) [Reference Example 33, (+)-2-[3,5-trans-5-[3-(acetylaminomethyl)phenyl]-7-chloro-1-neopentyl-2-oxo-1,2,3,5-tetrahydro-4,1-benzoxazepin-3-yl]-N-(2-fluorobenzyl)acetamide]
EC50 (human TGR5 [1]): < 0.1 µM
GLP-1 (% relative to non-addition) [2]: 201 % relative to non-addition
activation at 2 µM (rat TGR5): 92%

O=S(=O)(c1cc(C(F)(F)F)cc(C(F)(F)F)c1)N1CCCOc2nccc(-c3ccccc3)c2C1 [Example 23C, 5-{[3,5-bis(trifluoromethyl)phenyl]sulfonyl}-7-phenyl-3,4,5,6-tetrahydro-2H-pyrido[2,3-b][1,5]oxazocine]
cAMP producing activity (control %) (guinea pig TGR5): 119 control %
GLP-1 (% relative to non-addition) [2]: 133 % relative to non-addition
activation at 2 µM (rat TGR5): 148%

CC(C)(C)CN1C(=O)C(CC(=O)NCc2ccccc2F)N(C(=O)c2ccncc2)Cc2ccccc21 (stereo not drawn) [Example 1B, N-(2-fluorobenzyl)-2-(4-isonicotinoyl-1-neopentyl-2-oxo-2,3,4,5-tetrahydro-1H-1,4-benzodiazepin-3-yl)acetamide]
cAMP production increasing activity (control %) (human TGR5 [3]): 113 control %
cAMP production increasing activity ([4]; Experimental Example 4, Base 0.28): 0.23 pmol
cAMP production increasing activity (control %) (rabbit TGR5): 71.2 control %

CC(c1cc(C(F)(F)F)cc(C(F)(F)F)c1)N1CCOc2nccc(-c3ccccc3)c2C1.Cl (stereo not drawn) [Example 33C, 4-{1-[3,5-bis(trifluoromethyl)phenyl]ethyl}-6-phenyl-2,3,4,5-tetrahydropyrido[3,2-f][1,4]oxazepine hydrochloride]
cAMP producing activity (control %) (guinea pig TGR5): 111 control %
EC50 (human TGR5 [1]): < 0.1 µM
GLP-1 (% relative to non-addition) [2]: 214 % relative to non-addition
activation at 2 µM (rat TGR5): 149%

FC(F)(F)c1cc(CN2CCCOc3nccc(-c4ccccc4)c3C2)cc(C(F)(F)F)c1.FC(F)(F)c1cc(CN2CCCOc3nccc(-c4ccccc4)c3C2)cc(C(F)(F)F)c1.O=S(=O)(O)O [Example 18C, 5-[3,5-bis(trifluoromethyl)benzyl]-7-phenyl-3,4,5,6-tetrahydro-2H-pyrido[2,3-b][1,5]oxazocine ½sulfate]
cAMP production increasing activity (control %) (human TGR5 [3]): 112 control %
cAMP production increasing activity [4, 5]: 0.17 pmol
cAMP production increasing activity (control %) (rabbit TGR5): 106 control %

O=C(c1cc(C(F)(F)F)cc(C(F)(F)F)c1)N1CCOc2nccc(-c3ccccc3)c2C1 [Example 14C, 4-[3,5-bis(trifluoromethyl)benzoyl]-6-phenyl-2,3,4,5-tetrahydropyrido[3,2-f][1,4]oxazepine]
cAMP production increasing activity (control %) (human TGR5 [3]): 100 control %
cAMP production increasing activity [4, 5]: 0.17 pmol
cAMP production increasing activity (control %) (rabbit TGR5): 116 control %

FC(F)(F)c1cc(CN2CCOc3nccc(-c4ccccc4)c3C2)cc(C(F)(F)F)c1 [Example 9C, 4-[3,5-bis(trifluoromethyl)benzyl]-6-phenyl-2,3,4,5-tetrahydropyrido[3,2-f][1,4]oxazepine]
cAMP production increasing activity (control %) (human TGR5 [3]): 96 control %
cAMP production increasing activity [4, 5]: 0.2 pmol
cAMP production increasing activity (%) (NCI-H716 cells): 109%
cAMP production increasing activity (control %) (rabbit TGR5): 99 control %
activation at 2 µM (rat TGR5): 112%
